Our source for the GI50 and IC50 values is patent US20230416232A1, “PYRIMIDINE COMPOUNDS, COMPOSITIONS, AND MEDICINAL APPLICATIONS THEREOF” (Blueprint Medicines Corporation, priority 2020, published 2023).

Format in all cases: cell-based
For assay [1], the target named is EGFR(D770_N771insSVD) expressing Ba/F3 stable cell line (Homo sapiens, UniProt P00533, DUP768-770, cells depend on it). Nature of the assay: Cellular proliferation (Alamar Blue) assay, EGFR(D770_N771insSVD) Ba/F3. Particulars: 72 hr, read-out: D770 IC50. The procedure, abridged: (§1)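 Compound exposure lasted 72 h at 37 °C over a final 10–0.0005 μM range in 3-fold steps, with viability read by Alamar Blue after a further 3 h. Ba/F3 mutant lines were plated at 15,000 cells/well in RPMI/10% FBS, A431 at 5000/well in DMEM/10% FBS, 16–18 h beforehand.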
Background: Resazurin is reduced to fluorescent resorufin, in cell work by metabolically active cells.

Assay [2] has as its target EGFR (A767_dupASV) expressing Ba/F3 stable cell line (Homo sapiens, UniProt P00533, DUP767-769, cells depend on it). Nature of the assay: Cellular proliferation (Alamar Blue) assay, EGFR (A767_dupASV) Ba/F3. The settings on record: 72 hr, read-out: A767 IC50. The procedure, abridged: as §1
For a further assay, the system named is A431 cells. Put plainly: Cellular proliferation (Alamar Blue) assay, A431 cells. Particulars: Homo sapiens, A-431, 72 h, A431 cells; 72 hr; Alamar Blue; read-out: A431 IC50. The procedure, abridged:
as §1

For assay [3], the target named is EGFR (H773insNPH) expressing Ba/F3 stable cell line (Homo sapiens, UniProt P00533, DUP771-773, cells depend on it). Nature of the assay: Cellular proliferation (Alamar Blue) assay, EGFR (H773insNPH) Ba/F3. Particulars: 72 hr, read-out: NPH IC50. The procedure, abridged:
as §1

Assay [4] has as its target HER2 (A775_G776insYVMA) expressing Ba/F3 stable cell line (Homo sapiens, UniProt P04626, DUP772-775, cells depend on it). Nature of the assay: Cellular proliferation (Alamar Blue) assay, HER2 (A775_G776insYVMA) Ba/F3. Particulars: HER2 (A775_G776insYVMA) Ba/F3 cells; 72 hr; Alamar Blue; read-out: YVMA IC50. The procedure, abridged: as §1

Where a name gives a salt, the structure may show the parent alone. A value given as a limit tells only on which side of the number the result lay.

Chain of EGFR(D770_N771insSVD) expressing Ba/F3 stable cell line (P00533 with tags, fused parts or gaps DUP768-770): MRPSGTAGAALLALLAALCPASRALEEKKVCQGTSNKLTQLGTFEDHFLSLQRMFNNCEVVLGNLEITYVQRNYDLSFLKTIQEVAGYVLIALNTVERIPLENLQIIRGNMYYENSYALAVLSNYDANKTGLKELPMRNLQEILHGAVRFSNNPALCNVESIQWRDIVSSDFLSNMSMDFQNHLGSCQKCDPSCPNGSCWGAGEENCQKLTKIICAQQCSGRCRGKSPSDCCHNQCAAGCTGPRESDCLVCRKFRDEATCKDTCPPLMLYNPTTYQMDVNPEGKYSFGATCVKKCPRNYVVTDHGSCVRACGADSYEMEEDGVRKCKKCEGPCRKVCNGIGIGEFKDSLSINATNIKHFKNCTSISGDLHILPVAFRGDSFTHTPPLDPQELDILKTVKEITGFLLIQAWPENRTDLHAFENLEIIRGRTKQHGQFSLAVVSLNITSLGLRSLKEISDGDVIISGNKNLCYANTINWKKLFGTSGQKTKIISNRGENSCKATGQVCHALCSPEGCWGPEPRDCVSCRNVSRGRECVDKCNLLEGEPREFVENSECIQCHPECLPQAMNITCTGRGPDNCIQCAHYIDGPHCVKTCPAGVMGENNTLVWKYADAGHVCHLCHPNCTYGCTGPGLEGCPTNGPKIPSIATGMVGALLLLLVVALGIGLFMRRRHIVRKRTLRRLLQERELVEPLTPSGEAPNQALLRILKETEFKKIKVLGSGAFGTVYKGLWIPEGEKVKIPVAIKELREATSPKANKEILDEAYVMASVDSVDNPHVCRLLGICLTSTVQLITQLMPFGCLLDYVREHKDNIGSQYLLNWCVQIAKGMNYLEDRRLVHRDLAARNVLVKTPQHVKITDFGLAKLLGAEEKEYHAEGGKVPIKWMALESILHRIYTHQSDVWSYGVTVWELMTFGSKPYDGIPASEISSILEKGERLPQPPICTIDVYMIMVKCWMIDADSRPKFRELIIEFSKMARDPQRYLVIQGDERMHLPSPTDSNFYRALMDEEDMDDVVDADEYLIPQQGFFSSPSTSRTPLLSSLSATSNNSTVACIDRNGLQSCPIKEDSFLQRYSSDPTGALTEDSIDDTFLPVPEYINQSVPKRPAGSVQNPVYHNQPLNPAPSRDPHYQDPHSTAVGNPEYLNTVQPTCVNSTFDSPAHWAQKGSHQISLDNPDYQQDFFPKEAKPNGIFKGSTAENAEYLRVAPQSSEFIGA
Chain of EGFR (H773insNPH) expressing Ba/F3 stable cell line (P00533 with tags, fused parts or gaps DUP771-773): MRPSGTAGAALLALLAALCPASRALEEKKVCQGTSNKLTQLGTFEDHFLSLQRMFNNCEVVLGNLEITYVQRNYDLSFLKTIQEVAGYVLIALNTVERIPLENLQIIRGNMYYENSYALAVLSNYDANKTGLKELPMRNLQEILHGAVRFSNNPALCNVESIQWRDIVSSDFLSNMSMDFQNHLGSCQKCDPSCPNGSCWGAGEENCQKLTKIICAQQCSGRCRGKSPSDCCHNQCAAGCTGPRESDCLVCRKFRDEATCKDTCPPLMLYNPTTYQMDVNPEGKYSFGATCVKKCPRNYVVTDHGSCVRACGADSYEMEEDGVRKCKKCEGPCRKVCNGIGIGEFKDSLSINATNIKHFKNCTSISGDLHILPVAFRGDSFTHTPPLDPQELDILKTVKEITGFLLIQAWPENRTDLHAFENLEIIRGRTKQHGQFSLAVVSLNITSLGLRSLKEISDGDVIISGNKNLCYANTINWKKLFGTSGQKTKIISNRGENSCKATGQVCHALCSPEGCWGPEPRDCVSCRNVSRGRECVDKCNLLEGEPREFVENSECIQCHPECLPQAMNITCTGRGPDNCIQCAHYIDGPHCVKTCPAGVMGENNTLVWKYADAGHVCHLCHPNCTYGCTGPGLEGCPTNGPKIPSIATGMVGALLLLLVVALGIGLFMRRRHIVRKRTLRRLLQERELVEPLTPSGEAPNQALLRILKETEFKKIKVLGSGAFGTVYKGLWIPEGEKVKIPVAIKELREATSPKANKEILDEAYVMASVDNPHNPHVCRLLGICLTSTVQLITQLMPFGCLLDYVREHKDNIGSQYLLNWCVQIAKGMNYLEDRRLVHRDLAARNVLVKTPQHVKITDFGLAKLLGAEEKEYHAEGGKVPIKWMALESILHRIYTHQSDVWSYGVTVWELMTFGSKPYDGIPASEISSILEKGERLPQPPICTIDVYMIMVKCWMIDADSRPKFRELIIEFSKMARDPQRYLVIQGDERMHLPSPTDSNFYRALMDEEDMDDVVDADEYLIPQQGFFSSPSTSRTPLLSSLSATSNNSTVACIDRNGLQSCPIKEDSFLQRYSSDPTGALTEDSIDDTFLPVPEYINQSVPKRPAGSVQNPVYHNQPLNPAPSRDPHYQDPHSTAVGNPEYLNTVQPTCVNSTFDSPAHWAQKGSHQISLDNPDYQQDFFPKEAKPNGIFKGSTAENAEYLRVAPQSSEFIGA
Chain of HER2 (A775_G776insYVMA) expressing Ba/F3 stable cell line (P04626 with tags, fused parts or gaps DUP772-775): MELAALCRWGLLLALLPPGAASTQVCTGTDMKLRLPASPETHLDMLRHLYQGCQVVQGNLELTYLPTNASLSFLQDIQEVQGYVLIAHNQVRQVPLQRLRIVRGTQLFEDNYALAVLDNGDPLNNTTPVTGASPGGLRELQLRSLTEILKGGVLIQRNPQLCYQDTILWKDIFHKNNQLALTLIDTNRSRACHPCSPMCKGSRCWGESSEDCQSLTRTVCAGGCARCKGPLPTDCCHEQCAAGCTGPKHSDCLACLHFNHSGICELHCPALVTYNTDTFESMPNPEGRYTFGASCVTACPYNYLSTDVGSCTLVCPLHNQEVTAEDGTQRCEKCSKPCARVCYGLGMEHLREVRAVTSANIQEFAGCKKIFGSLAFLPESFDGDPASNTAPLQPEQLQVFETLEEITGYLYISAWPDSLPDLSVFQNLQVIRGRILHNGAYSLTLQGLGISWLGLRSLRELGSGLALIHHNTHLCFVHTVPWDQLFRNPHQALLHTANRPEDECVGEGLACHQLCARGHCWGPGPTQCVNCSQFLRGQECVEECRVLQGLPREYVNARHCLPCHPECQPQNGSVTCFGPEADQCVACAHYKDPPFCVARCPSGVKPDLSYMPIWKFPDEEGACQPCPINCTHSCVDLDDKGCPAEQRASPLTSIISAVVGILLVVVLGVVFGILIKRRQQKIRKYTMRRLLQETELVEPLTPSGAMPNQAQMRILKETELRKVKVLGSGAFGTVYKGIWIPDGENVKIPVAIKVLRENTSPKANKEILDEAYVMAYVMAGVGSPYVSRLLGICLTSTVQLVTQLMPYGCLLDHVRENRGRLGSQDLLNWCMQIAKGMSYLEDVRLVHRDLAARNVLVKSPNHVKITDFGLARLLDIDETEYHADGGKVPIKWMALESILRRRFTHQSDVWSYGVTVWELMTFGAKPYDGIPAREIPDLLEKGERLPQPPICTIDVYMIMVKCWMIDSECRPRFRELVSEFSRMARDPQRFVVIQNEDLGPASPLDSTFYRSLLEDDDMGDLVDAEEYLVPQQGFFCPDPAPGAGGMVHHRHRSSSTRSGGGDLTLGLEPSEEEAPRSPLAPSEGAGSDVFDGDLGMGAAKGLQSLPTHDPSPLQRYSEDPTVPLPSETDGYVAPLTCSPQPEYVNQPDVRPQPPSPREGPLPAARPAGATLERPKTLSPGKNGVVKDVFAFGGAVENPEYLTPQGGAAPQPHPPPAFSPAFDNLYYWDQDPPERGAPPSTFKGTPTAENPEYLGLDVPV
Chain of EGFR (A767_dupASV) expressing Ba/F3 stable cell line (P00533 with tags, fused parts or gaps DUP767-769): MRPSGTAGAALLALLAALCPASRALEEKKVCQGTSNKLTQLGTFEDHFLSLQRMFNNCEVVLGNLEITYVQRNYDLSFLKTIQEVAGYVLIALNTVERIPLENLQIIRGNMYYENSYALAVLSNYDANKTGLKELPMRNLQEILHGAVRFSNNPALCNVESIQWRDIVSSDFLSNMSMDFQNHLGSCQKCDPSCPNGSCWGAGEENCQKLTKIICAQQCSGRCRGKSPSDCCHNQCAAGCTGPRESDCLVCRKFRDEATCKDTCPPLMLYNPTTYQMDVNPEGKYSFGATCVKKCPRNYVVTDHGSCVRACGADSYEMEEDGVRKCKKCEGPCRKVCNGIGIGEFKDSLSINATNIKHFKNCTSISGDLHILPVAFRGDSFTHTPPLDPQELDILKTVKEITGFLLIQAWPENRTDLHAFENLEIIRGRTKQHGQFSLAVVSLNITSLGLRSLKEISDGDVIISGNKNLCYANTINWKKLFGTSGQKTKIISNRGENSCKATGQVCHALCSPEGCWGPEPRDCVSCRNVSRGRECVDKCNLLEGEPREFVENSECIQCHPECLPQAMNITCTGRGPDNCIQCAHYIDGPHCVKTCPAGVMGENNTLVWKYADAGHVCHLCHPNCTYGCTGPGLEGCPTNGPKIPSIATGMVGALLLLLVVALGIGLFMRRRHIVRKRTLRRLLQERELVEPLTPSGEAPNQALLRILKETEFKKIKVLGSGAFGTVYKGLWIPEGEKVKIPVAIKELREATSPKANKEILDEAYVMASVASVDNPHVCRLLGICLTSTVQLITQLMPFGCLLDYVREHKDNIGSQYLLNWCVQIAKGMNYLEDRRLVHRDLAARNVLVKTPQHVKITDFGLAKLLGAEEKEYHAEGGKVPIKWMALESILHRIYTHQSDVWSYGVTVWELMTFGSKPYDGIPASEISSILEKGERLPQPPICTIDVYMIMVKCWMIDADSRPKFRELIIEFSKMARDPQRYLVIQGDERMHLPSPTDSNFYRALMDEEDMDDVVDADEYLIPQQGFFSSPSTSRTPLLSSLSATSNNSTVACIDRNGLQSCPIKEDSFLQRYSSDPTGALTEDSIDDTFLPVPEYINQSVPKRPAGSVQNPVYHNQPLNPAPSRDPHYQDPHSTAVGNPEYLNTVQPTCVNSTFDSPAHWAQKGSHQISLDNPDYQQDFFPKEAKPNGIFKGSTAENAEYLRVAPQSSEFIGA

As to `C=CC(=O)Nc1ccc(F)c(Nc2nc(Nc3cnn(C)c3)ncc2-c2ccc(N3CCOCC3)c(F)c2)c1` [Compound 76, N-[4-fluoro-3-({5-[3-fluoro-4-(morpholin-4-yl)phenyl]-2-[(1-methyl-1H-pyrazol-4-yl)amino]pyrimidin-4-yl}amino)phenyl]prop-2-enamide], the GI50 came to 220 nM in assay [1], 72 nM in assay [2], 236 nM in assay [3] and 240 nM in assay [4]. Besides, the half-maximal inhibitory concentration (IC50) in the assay on A431 cells worked out at 1260 nM.
In the same order, the values of `C=CC(=O)Nc1ccc(F)c(Nc2nc(Nc3cnn(C)c3)ncc2-c2cc(F)cc(C(F)F)c2)c1` [Compound 15, N-(3-((5-(3-(difluoromethyl)-5-fluorophenyl)-2-((1-methyl-1H-pyrazol-4-yl)amino)pyrimidin-4-yl)amino)-4-fluorophenyl)acrylamide] are 36 nM, 45 nM, 102 nM, 124 nM and 84 nM.
In the same order, the values of `C=CC(=O)Nc1ccc(F)c(Nc2nc(Nc3cnn(C)c3)ncc2-c2ccc(N(C)C)c(F)c2)c1` [Compound 28, N-(3-((5-(4-(dimethylamino)-3-fluorophenyl)-2-((1-methyl-1H-pyrazol-4-yl)amino)pyrimidin-4-yl)amino)-4-fluorophenyl)acrylamide] are 29 nM, 27 nM, 47 nM, 271 nM and 193 nM.
In the same order, the values of `C=CC(=O)Nc1ccc(F)c(Nc2nc(Nc3cnn(C)c3)ncc2-c2ccc(C)c(F)c2)c1` [Compound 13, N-(4-fluoro-3-((5-(3-fluoro-4-methylphenyl)-2-((1-methyl-1H-pyrazol-4-yl)amino)pyrimidin-4-yl)amino)phenyl)acrylamide] are 28 nM, 42 nM, 79 nM, 114 nM and 147 nM.
For the compound `C=CC(=O)Nc1ccc(F)c(Nc2nc(Nc3cnn(C)c3)ncc2-c2ccc(OC)cc2F)c1` [Compound 7, N-(4-fluoro-3-((5-(2-fluoro-4-methoxyphenyl)-2-((1-methyl-1H-pyrazol-4-yl)amino)pyrimidin-4-yl)amino)phenyl)acrylamide], the GI50 in assay [1] worked out at 94 nM; in assay [2], 97 nM; in assay [3], 97 nM; in assay [4], 377 nM. For the same compound, the IC50 in the assay on A431 cells is 229 nM.
On to `C=CC(=O)Nc1ccc(F)c(Nc2nc(Nc3cn(C)nc3Cl)ncc2-c2ccc(Br)c(F)c2)c1` [Compound 92, N-(3-((5-(4-bromo-3-fluorophenyl)-2-((3-chloro-1-methyl-1H-pyrazol-4-yl)amino)pyrimidin-4-yl)amino)-4-fluorophenyl)acrylamide], for which the GI50 in assay [1] was found to be 74 nM; in assay [2], 102 nM; in assay [3] it was 54 nM; in assay [4], 113 nM. Also, in the assay on A431 cells, the IC50 is 45 nM.
In the case of `C=CC(=O)Nc1ccc(F)c(Nc2nc(Nc3cnn(C)c3)ncc2-c2ccc(N3CCCC3)c(F)c2)c1` [Compound 77, N-(4-fluoro-3-((5-(3-fluoro-4-(pyrrolidin-1-yl)phenyl)-2-((1-methyl-1H-pyrazol-4-yl)amino)pyrimidin-4-yl)amino)phenyl)acrylamide], the GI50 worked out at 340 nM in assay [1], 113 nM in assay [2], 353 nM in assay [3] and 584 nM in assay [4]. For the same compound, the IC50 in the assay with A431 cells was 297 nM.
`C=CC(=O)Nc1ccc(F)c(Nc2nc(Nc3cnn(C)c3)ncc2-c2ccc(Br)c(Cl)c2)c1` [Compound 88, N-(3-((5-(4-bromo-3-chlorophenyl)-2-((1-methyl-1H-pyrazol-4-yl)amino)pyrimidin-4-yl)amino)-4-fluorophenyl)acrylamide]: the GI50 in assay [1] turned out to be 66 nM; in assay [2], 87 nM; in assay [3] it was 57 nM; in assay [4], 118 nM. Further, the IC50 in the assay on A431 cells stood at 280 nM.
For `C=CC(=O)Nc1ccc(F)c(Oc2nc(Nc3cnn(C)c3)ncc2-c2ccc(Cl)c(F)c2)c1` [Compound 98, N-(3-{[5-(4-chloro-3-fluorophenyl)-2-[(1-methyl-1H-pyrazol-4-yl)amino]pyrimidin-4-yl]oxy}-4-fluorophenyl) prop-2-enamide], the GI50 in assay [1] amounted to 36 nM; in assay [2], 104 nM; in assay [3], 153 nM; in assay [4] it was 252 nM. In the assay on A431 cells, the IC50 came to 990 nM.
`C=CC(=O)Nc1ccc(F)c(Nc2nc(Nc3cnn(C)c3)ncc2-c2ccc(C(F)(F)F)cc2F)c1` [Compound 21, N-(4-fluoro-3-((5-(2-fluoro-4-(trifluoromethyl)phenyl)-2-((1-methyl-1H-pyrazol-4-yl)amino)pyrimidin-4-yl)amino)phenyl)acrylamide]: the GI50 in assay [1] came to 107 nM; in assay [2], 181 nM; in assay [3], 261 nM; in assay [4], 1030 nM. In the assay with A431 cells, the concentration for half-maximal inhibition (IC50) was over 10000 nM.
In the same order, the values of `C=CC(=O)Nc1ccc(F)c(Nc2nc(Nc3cnn(C)c3)ncc2-c2ccc(Cl)c(Br)c2)c1` [Compound 90, N-(3-((5-(3-bromo-4-chlorophenyl)-2-((1-methyl-1H-pyrazol-4-yl)amino)pyrimidin-4-yl)amino)-4-fluorophenyl)acrylamide] are 100 nM, 122 nM, 156 nM, 164 nM and 185 nM.
In the same order, the values of `C=CC(=O)Nc1ccc(F)c(Nc2nc(Nc3cnn(C)c3)ncc2-c2cnc(OC)c(Cl)c2)c1` [Compound 31, N-(3-((5-(5-chloro-6-methoxypyridin-3-yl)-2-((1-methyl-1H-pyrazol-4-yl)amino)pyrimidin-4-yl)amino)-4-fluorophenyl)acrylamide trifluoroacetate] are 50 nM, 34 nM, 92 nM, 94 nM and 582 nM.
In the same order, the values of `C=CC(=O)Nc1ccc(F)c(Nc2nc(Nc3cnn(C)c3)ncc2-c2ccc(C(F)F)c(F)c2)c1` [Compound 37, N-(3-((5-(4-(difluoromethyl)-3-fluorophenyl)-2-((1-methyl-1H-pyrazol-4-yl)amino)pyrimidin-4-yl)amino)-4-fluorophenyl)acrylamide] are 30 nM, 34 nM, 51 nM, 93 nM and 51 nM.
With `C=CC(=O)Nc1ccc(F)c(Nc2nc(Nc3cnn(C4COC4)c3)ncc2-c2ccc(F)c(Cl)c2)c1` [Compound 53, N-(3-((5-(3-chloro-4-fluorophenyl)-2-((1-(oxetan-3-yl)-1H-pyrazol-4-yl)amino)pyrimidin-4-yl)amino)-4-fluorophenyl)acrylamide], the GI50 in assay [1] is 104 nM; in assay [2], 119 nM; in assay [3] it was 153 nM; in assay [4], 211 nM. In addition, the concentration for half-maximal inhibition (IC50) in the assay on A431 cells came out at 1220 nM.
As for `C=CC(=O)Nc1ccc(F)c(Nc2nc(Nc3cnn(C)c3)ncc2-c2cc(F)cc(C(F)(F)F)c2)c1` [Compound 27, N-(4-fluoro-3-((5-(3-fluoro-5-(trifluoromethyl)phenyl)-2-((1-methyl-1H-pyrazol-4-yl)amino)pyrimidin-4-yl)amino)phenyl)acrylamide], the GI50 is 35 nM in assay [1], 31 nM in assay [2], 55 nM in assay [3] and 150 nM in assay [4]. In addition, in the assay with A431 cells, the half-inhibitory concentration (IC50) was 73 nM.
Turning to `C=CC(=O)Nc1ccc(F)c(Nc2nc(Nc3cnn(C)c3)ncc2-c2ccc(F)c(Cl)c2)c1` [Compound 6, N-(3-((5-(3-chloro-4-fluorophenyl)-2-((1-methyl-1H-pyrazol-4-yl)amino)pyrimidin-4-yl)amino)-4-fluorophenyl)acrylamide], the GI50 in assay [1] came to 51 nM; in assay [2] it was 80 nM; in assay [3], 83 nM; in assay [4], 187 nM. Also, the IC50 in the assay on A431 cells amounted to 810 nM.
In the same order, the values of `C=CC(=O)Nc1ccc(F)c(Nc2nc(Nc3cnn(C)c3)ncc2-c2cnc(Cl)c(F)c2)c1` [Compound 45, N-(3-((5-(6-chloro-5-fluoropyridin-3-yl)-2-((1-methyl-1H-pyrazol-4-yl)amino)pyrimidin-4-yl)amino)-4-fluorophenyl)acrylamide] are 7 nM, 10 nM, 25 nM, 16 nM and 35 nM.
In the same order, the values of `C=CC(=O)Nc1ccc(F)c(Nc2nc(Nc3cnn(C)c3)ncc2-c2ccc(F)c(C(F)(F)F)c2)c1` [Compound 25, N-(4-fluoro-3-((5-(4-fluoro-3-(trifluoromethyl)phenyl)-2-((1-methyl-1H-pyrazol-4-yl)amino)pyrimidin-4-yl)amino)phenyl)acrylamide] are 102 nM, 87 nM, 91 nM, 341 nM and 49 nM.

As a reminder, the IC50 is the concentration at which inhibition is half-maximal.
